Results taken from patent publication US20250327793A1, “METHODS OF IDENTIFYING COMPOUNDS THAT MODULATE LAUNDRY MALODOR, MOLDY MALODOR, OR SWEAT MALODOR” (Firmenich SA, priority 2017, published 2025).

What was measured:
Olfr93 = Olfr93 (Mus musculus, UniProt B9EI77); assay: 1-octen-3-ol concentration-dependent activation of Olfr93: OR-dependent cAMP accumulation in a cell-based assay (functional dose-response); conditions: agonist, mouse Olfr93 (SEQ ID NO: 63), N-terminal FLAG/Rho/Lucy tags, HEK 293T cells, Gαolf, FIG. 6
Olfr93, sequence (B9EI77 1-312): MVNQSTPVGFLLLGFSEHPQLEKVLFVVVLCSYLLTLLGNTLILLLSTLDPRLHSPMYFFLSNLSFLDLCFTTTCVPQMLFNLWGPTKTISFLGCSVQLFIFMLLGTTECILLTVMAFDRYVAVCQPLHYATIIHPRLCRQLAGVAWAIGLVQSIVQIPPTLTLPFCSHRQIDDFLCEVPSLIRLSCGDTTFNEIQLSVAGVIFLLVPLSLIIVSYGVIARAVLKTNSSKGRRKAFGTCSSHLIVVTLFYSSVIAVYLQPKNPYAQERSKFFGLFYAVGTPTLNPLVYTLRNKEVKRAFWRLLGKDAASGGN
Text: (§1) The detection method pertains to OR-dependent accumulation of cAMP in said cells, as a result of OR activation by 1-octen-3-ol.
(§2) In a further embodiment, to complete the deorphanization process, the candidate OR genes are further expressed in vitro for confirmation of activity against the compounds used to isolate the olfactory sensory neurons and other structurally-related compounds of interest. […]
(§3) Neurons that were activated by DMTS were further isolated for full transcriptome analysis to identify the responsive odorant receptor. […] Amplified cDNA was then used to generate an Illumina cDNA library for Next-Generation-Sequencing and the generation of 100 base pair single read sequences. […]

Olfr398 = Olfr398 (Mus musculus, UniProt Q8VFY0); assay: 1-octen-3-ol concentration-dependent activation of Olfr398: OR-dependent cAMP accumulation in a cell-based assay (functional dose-response); conditions: agonist, mouse Olfr398 (SEQ ID NO: 65), N-terminal FLAG/Rho/Lucy tags, HEK 293T cells, Gαolf, FIG. 6
Olfr398, sequence (Q8VFY0 1-314): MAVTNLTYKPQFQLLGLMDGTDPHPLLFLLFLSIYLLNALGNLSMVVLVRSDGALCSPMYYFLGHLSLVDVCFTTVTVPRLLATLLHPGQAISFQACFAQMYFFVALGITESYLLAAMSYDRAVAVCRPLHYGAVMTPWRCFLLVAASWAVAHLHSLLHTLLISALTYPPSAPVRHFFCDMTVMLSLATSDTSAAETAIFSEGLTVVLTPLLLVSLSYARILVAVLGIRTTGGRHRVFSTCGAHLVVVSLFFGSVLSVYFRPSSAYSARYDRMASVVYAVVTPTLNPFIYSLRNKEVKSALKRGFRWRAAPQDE

Olfr120 = Olfr120 (Mus musculus, UniProt Q7TRJ4); assay: 1-octen-3-ol concentration-dependent activation of Olfr120: OR-dependent cAMP accumulation in a cell-based assay (functional dose-response); conditions: agonist, mouse Olfr120 (SEQ ID NO: 67), N-terminal FLAG/Rho/Lucy tags, HEK 293T cells, Gαolf, FIG. 6
Olfr120, sequence (Q7TRJ4 1-321): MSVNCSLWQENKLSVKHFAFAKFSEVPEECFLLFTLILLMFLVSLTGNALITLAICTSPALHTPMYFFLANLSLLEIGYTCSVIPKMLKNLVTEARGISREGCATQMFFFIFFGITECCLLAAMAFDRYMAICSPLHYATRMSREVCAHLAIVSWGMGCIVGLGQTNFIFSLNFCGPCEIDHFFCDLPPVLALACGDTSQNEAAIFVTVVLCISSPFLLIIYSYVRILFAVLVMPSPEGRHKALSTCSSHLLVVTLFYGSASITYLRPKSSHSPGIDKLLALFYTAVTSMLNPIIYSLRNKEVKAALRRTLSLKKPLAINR
Text: as §1, §2, §3

Olfr1364 = Olfr1364 (Mus musculus, UniProt Q5SZS9); assay: 1-octen-3-ol concentration-dependent activation of Olfr1364: OR-dependent cAMP accumulation in a cell-based assay (functional dose-response); conditions: agonist, mouse Olfr1364 (SEQ ID NO: 69), N-terminal FLAG/Rho/Lucy tags, HEK 293T cells, Gαolf, FIG. 6
Olfr1364, sequence (Q5SZS9 9-314): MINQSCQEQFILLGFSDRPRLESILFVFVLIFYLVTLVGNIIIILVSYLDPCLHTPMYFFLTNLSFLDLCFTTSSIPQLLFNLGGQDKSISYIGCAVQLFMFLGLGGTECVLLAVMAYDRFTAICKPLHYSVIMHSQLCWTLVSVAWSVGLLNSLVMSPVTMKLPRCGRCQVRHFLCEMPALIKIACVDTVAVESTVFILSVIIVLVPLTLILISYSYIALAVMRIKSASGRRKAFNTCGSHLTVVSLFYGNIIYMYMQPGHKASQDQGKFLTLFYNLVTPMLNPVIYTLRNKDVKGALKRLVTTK
Text: as §1, §2, §3

Olfr263 = Olfr263 (Mus musculus, UniProt Q7TQT8); assay: Concentration-dependent activation of Olfr263: OR-dependent cAMP accumulation in a cell-based assay (functional dose-response); conditions: agonist transpirol, mouse Olfr263 (SEQ ID NO: 22), N-terminal FLAG/Rho/Lucy tags, HEK 293T cells, Gαolf, FIG. 7
Olfr263, sequence (Q7TQT8 1-317): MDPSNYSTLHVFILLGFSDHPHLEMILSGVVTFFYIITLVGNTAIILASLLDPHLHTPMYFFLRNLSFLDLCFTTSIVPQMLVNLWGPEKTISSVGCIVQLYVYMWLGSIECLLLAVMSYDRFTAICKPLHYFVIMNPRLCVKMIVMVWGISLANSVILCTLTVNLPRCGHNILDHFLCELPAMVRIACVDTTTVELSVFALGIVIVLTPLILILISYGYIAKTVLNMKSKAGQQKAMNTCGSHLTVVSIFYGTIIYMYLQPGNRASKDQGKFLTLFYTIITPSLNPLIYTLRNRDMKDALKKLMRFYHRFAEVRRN
Text: (§4) The detection method pertains to OR-dependent accumulation of cAMP in said cells, as a result of OR activation by transpirol.
(§5) The detection method pertains to OR-dependent accumulation of cAMP in said cells, as a result of OR activation by 3-methyl-2-hexenoic acid.
as §2, §3

Olfr46 = Olfr46 (Mus musculus, UniProt Q2VPD7); assay: Transpirol concentration-dependent activation of Olfr46: OR-dependent cAMP accumulation in a cell-based assay (functional dose-response); conditions: agonist, mouse Olfr46 (SEQ ID NO: 75), N-terminal FLAG/Rho/Lucy tags, HEK 293T cells, Gαolf, FIG. 7
Olfr46, sequence (Q2VPD7 1-310): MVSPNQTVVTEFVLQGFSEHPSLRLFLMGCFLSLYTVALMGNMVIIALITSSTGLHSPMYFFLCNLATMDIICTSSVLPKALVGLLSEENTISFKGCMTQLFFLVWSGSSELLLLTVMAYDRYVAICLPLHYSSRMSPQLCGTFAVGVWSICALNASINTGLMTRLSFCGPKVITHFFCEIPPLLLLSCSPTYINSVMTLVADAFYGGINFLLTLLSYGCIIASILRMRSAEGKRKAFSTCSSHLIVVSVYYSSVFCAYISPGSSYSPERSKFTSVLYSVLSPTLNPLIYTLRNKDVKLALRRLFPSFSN
Text: as §4, §2, §3

OR2W1 = molecular target: T1, OR2W1 (Homo sapiens, UniProt Q9Y3N9, M81V); assay: Concentration-dependent activation of OR2W1: OR-dependent cAMP accumulation in a cell-based assay (functional dose-response); parameters: expressed in transfected cells; host or cells: HEK293T; conditions: agonist transpirol, human OR2W1 (SEQ ID NO: 2), HEK293T cells expressing Golf, FIG. 7
T1 sequence (Q9Y3N9 1-320 M81V): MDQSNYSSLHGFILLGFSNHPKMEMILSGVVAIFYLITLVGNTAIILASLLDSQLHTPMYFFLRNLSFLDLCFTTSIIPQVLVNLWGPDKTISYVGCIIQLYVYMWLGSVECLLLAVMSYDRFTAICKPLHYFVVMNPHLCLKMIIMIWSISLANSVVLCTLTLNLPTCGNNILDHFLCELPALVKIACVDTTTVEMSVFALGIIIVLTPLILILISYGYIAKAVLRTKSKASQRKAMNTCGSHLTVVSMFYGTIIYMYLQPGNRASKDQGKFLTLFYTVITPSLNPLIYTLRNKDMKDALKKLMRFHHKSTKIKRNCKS
Text: as §4, §5, §2
In the second method, a panel of odorant receptors comprising the 400 putatively functional human receptor repertoire were transfected into a cultured human HEK293T cell line described in WO2014/210585 expressing Human olfactory G-protein alpha subunit (Golf—SEQ. ID No. 49) and coupled to a cyclicAMP reporter. Said panel of in vitro odorant receptors were exposed to MCSs and the level of cAMP signal was measured for each receptor. […]

Row | EC50 (Olfr93) | EC50 (Olfr398) | EC50 (Olfr120) | EC50 (Olfr1364) | EC50 (Olfr263) | EC50 (Olfr46) | EC50 (OR2W1) | SMILES
1 | 0.69 µM | 11.4 µM | 26 µM | 113 µM | – | – | – | C=CC(O)CCCCC (stereo not shown) [1-Octen-3-ol, 1-octen-3-ol]
2 | – | – | – | – | 2.3 µM | 170 µM | 3.1 µM | CCCC(C)(S)CCO (stereo not shown) [Transpirol, 3-methyl-3-sulphanylhexanol]
